# In publication PMC11525786, “In silico and pharmacological evaluation of GPR65 as a cancer immunotherapy target regulating T-cell functions” (Frontiers in Immunology, 2024):
# Target: T1, GPR65 (Homo sapiens, UniProt Q8IYL9)
# T1 construct: GPR65 overexpressed in A375 cells (rCD2-GPR65 tandem lentivector)
# Experiment: HTRF cAMP induction in GPR65-overexpressing A375 cells ([…] agonist, pH […]), blocked by GPR65 antagonists
# Assay type: cell-based
# T1 sequence (Q8IYL9 whole entry): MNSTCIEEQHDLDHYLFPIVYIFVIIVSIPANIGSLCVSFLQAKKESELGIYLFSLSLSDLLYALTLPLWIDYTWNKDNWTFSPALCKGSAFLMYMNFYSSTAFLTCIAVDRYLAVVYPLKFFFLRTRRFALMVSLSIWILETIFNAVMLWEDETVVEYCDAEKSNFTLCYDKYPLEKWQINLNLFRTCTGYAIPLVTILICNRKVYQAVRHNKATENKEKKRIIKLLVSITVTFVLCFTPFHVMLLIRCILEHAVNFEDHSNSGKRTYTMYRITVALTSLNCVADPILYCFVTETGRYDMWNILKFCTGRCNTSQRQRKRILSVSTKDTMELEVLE
structure (smiles),measurement,value
"CN1N=C(SCc2ccc(Cl)cc2Cl)Sc2c1cnn(C)c2=O [BTB09089, 3-[(2,4-dichlorobenzyl)thio]-1,6-dimethyl-5,6-dihydro-1H-pyridazino [4,5-e][1,3,4]thiadiazin-5-one]","HTRF cAMP induction in GPR65-overexpressing A375 cells (1 μM agonist, pH 7.5), b",capacity to inhibit cAMP biosynthesis upon GPR65 activation by BTB09089
